US20190297885A1 (Dow Global Technologies LLC, priority 2016, published 2019)

Tested on: Chlorella sp. ATCC 7516
Experiment: Algal efficacy testing of dry paint films (modified ASTM 5589, 6-well plates)
Type: cell-based
Conditions: 504 h
Procedure: These paints were then diluted with a biocide free acrylic/silicone based paint and mixed to prepare targeted concentrations of biocide combinations for the testing. The total biocides concentrations obtained were 125, 250, 500, 1000, 2000 and 5000 ppm. After biocides addition or dilution, the paints were mixed 90 seconds with the horse power shaker (AXEL 75M3372/Agitateur SO-10MI) until uniformity was achieved. […] After one day, the paints were applied to Schleicher & Schuell filter paper at 280 μm wet film thickness and dried for 3 days at room temperature avoiding direct exposure to sunlight. Square discs (1.8 cm×1.8 cm) were cut out from each panel and were used as the substrate for algal efficacy tests. This sample size allowed for an agar border when the sample disc was placed into the well of the test plate.
Algal efficacy was tested according to modified ASTM 5589 which is a standard accelerated test method for determining resistance of various coatings (including paints) to algal defacement. To accommodate for high-throughput screening, this method was scaled down from petri plates to 6-well plates. […]
At the end of the incubation period the samples were scored for percent inhibition regarding color intensity compared to the blank sample
The SI is calculated based on F. C. […]

| Compound | inhibition at 10000 ppm (Total conc 10,000 ppm in paint, three weeks, color intensity vs blank, pass level 75%) [%] | inhibition at 1000 ppm [%] |
| --- | --- | --- |
| N#Cc1c(Cl)c(Cl)c(Cl)c(C#N)c1Cl [Chlorothalonil, 2,4,5,6-tetrachloroisophthalonitrile] | 15 | – |
| O=c1[nH]c2c(c(=O)n1C1CCCCC1)CCC2 [Lenacil, 3-Cyclohexyl-6,7-dihydro-1H-cyclopentapyrimidine-2,4-(3H,5H)-dione] | – | 90 |
